Experiment [1] addresses Thymidine phosphorylase (Escherichia coli K-12) (UniProt P07650). Briefly: Inhibition of Escherichia coli thymidine phosphorylase assessed as ratio of phosphorolysis in presence of drug to control at 10 umol/l.
Experiment [2] has as its target T1, Thymidine phosphorylase (Rattus norvegicus) (UniProt Q5FVR2).
T1 sequence (whole entry): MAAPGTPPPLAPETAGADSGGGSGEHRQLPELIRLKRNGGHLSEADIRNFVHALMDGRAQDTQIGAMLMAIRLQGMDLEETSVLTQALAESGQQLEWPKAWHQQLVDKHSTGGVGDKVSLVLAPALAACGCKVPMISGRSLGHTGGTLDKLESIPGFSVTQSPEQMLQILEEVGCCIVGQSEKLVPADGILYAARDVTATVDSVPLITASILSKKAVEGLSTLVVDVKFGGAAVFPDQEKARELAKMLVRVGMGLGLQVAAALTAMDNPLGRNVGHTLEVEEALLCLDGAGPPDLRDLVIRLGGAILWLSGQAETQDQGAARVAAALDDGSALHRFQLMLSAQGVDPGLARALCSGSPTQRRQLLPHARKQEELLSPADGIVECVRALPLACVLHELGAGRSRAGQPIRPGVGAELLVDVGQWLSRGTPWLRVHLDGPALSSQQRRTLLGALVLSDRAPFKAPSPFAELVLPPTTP
Nature of the experiment: Inhibition of Sprague-Dawley rat lymphoma thymidine phosphorylase assessed as ratio of phosphorolysis in presence of drug to control at 10 umol/l.

Chain of Thymidine phosphorylase (Escherichia coli K-12) (P07650 whole entry, looked up): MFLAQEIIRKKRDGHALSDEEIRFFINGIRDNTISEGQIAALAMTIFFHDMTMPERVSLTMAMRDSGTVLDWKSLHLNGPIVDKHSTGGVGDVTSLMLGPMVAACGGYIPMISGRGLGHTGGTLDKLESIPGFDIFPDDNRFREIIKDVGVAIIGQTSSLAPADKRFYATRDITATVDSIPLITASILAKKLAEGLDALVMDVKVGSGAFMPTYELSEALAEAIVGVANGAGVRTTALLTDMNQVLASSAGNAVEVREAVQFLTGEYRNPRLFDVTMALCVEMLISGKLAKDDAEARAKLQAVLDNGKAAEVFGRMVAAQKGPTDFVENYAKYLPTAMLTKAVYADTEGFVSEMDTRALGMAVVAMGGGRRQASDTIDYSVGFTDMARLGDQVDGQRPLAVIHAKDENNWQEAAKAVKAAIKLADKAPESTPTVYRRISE

`Cc1c[nH]c(=O)n(C[C@@H](CF)OCP(=O)(O)O)c1=O`: the Ratio in experiment [1] stood at 0.93.

`Cc1c[nH]c(=O)n(C[C@H](CF)OCP(=O)(O)O)c1=O`: the Ratio amounted to 0.75 in experiment [2] and 0.98 in experiment [1]. In the same order, the values of `Cc1c[nH]c(=O)n(C[C@H](CO)OCP(=O)(O)O)c1=O` are 0.78 and 1.01. Consider `Cc1c[nH]c(=O)n(C[C@@H](CO)OCP(=O)(O)O)c1=O`, for which, in experiment [1], the Ratio came to 0.94.

Take `Cc1c[nH]c(=O)n(CCOCP(=O)(O)O)c1=O`: the Ratio stood at 1.44 in experiment [2] and 1.07 in experiment [1].

The values above are taken from ChEMBL document CHEMBL1143866, “Syntheses of N3-substituted thymine acyclic nucleoside phosphonates and a comparison of their inhibitory effect towards thymidine phosphorylase” (Bioorg Med Chem Lett, 2008).
